Experimental data from patent US11185532B2, “Methods of treating pruritus” (Clexio Biosciences Ltd., priority 2019, dated 2021).
Read-outs that look alike come from different tables or passages of the source.

Key:
[1] = test system: PNT-induced neuropathic pain in pigs; test: Peripheral neuritis trauma (PNT)-induced neuropathic pain in pigs; type: in vivo; conditions: topical twice daily 0.1%, 0.33%, 1%
Source text: 30 pigs were anaesthetized and an incision of 8-10 cm made through the skin and fascia on the left side of their lower backs, approximately 1 cm lateral and parallel to the spine line. The muscles were retracted and the sciatic nerve exposed. Following exposure, PNT was induced by loosely tying (1-2 mm apart) around the lateral half of the sciatic nerve bundle, three 3-0 silk threads, each previously immersed in complete Freund's adjuvant. 14 days after surgery and once chronic neuropathic pain had been established, treatment was initiated according to the protocol shown in Table 5. [table] At time points over the following 14 days, the animals were assessed for a variety of pain and motor parameters.

HRH4 = molecular target: T1, HRH4 (Homo sapiens, UniProt Q9H3N8); test: β-arrestin GPCR internalization assay; type: cell-based; conditions: for EC50: read-out: RC50 (EC50)
T1 construct: Eurofins Discover X, USA

SST4 [2] = molecular target: T2, SST4 (Homo sapiens, UniProt P31391); test: In vitro functional assay, SST4; type: cell-based; conditions: agonist; highest concentration tested 10 μm
T2 sequence (P31391 whole entry): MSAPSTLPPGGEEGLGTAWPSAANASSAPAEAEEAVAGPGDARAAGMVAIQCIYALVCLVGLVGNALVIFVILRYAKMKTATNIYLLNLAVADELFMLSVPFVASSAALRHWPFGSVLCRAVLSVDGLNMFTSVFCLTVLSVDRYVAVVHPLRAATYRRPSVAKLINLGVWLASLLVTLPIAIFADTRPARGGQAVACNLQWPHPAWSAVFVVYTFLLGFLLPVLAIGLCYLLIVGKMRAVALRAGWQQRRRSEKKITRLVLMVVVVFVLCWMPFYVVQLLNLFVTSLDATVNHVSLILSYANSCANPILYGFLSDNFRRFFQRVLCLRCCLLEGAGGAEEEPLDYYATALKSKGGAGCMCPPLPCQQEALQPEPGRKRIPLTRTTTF

SST4 [3] = molecular target: T2, SST4; test: biochemical
Adrenergic α2C = Adrenergic α2C (Homo sapiens, UniProt P18825); test: biochemical
Adrenergic α2C, sequence (P18825 whole entry): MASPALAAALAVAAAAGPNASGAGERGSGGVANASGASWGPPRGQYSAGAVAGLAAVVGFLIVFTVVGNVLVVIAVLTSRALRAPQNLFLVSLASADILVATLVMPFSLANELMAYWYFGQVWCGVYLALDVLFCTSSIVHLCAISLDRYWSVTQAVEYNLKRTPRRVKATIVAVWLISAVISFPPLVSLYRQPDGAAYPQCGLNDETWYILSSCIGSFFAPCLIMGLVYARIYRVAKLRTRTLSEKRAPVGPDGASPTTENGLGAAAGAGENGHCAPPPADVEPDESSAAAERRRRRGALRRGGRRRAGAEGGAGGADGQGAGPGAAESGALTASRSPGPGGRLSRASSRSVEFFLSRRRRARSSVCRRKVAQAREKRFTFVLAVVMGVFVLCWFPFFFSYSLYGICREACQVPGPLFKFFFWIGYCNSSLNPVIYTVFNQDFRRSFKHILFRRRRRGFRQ

Adrenergic α2A = Adrenergic α2A (Homo sapiens, UniProt P08913); test: biochemical
Adrenergic α2A, sequence (P08913 whole entry): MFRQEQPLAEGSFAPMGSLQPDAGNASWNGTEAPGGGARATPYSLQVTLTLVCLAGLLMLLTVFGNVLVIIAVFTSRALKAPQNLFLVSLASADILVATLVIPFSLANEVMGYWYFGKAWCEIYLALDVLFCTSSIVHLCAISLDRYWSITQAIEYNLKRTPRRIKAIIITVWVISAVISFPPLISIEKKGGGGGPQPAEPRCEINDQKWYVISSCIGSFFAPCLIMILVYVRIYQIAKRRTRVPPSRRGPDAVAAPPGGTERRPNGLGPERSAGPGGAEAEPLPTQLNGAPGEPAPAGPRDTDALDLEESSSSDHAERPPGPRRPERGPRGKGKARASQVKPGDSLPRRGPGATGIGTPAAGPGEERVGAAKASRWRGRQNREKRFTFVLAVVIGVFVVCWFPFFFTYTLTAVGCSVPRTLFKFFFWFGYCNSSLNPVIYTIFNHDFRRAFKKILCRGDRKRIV

EC50 (HRH4; assay format: Agonist) [µM] | IC50 (HRH4; assay format: Antagonist, read-out: RC50 (IC50)) [µM] | EC50 (HRH4; assay format: Inverse agonist) [µM] | EC50 (SST4 [2]) [µM] | Structure (SMILES) | Stimulus-evoked pain, Von Frey (VF) withdrawal threshold ([1]; 14 days, versus placebo, from Day 0) | Tactile allodynia, feather stimulation ([1]; 12-13 cm pigeon feather, as soon as Day 0) | Spontaneous pain behavior, General Behavioral Score (GBS) ([1]; 3 h and 6 h post-dose, from Day 0) | Open field motor test, locomotor activity / sedation ([1]; throughout the study) | inhibition at 10 µM (SST4 [3]) [%] | inhibition at 10 µM (Adrenergic α2C) [%] | inhibition at 10 µM (Adrenergic α2A) [%]
9.6 | > 100 | > 100 | 7.3 | Cc1cccc(Cc2c[nH]cn2)c1C [detomidine] | dose-dependent analgesic effect | dose-dependent decreased tactile allodynia | dose-dependent reduction in GBS scores | did not affect locomotor activity at any dose level | 35 | – | –
– | – | – | – | Clc1cccc(Cl)c1N=C1NCCN1 [clonidine] | – | – | – | – | 13 | 97 | 94
